Counter-ions that a name gives are not always drawn. Like-named read-outs stand apart in the source and are kept apart here.
What was measured:
[1] = system: isolated rat hepatocytes; assay: Glycogenolysis inhibition in isolated rat hepatocytes; format: cell-based; details: isolated rat hepatocytes, 60-min incubation with 0.3 nM glucagon, mean ± S.D. of three, NI means no inhibition, read-out: IC50 (glycogenolysis inhibition, rat hepatocytes)
Excerpt: (§1) To evaluate the effects of all compounds in cells, the glycogenolysis assays were established in both rat and human liver cells based on the published method. […] The inhibitory activities of the derivatives of PSN-357 (e.g. 25–28) were also explored. It is not surprising that the derivatives still retained micromolar inhibitory activities. Introduction of steric bulks to the hydroxyl group (e.g. 33, 40, 42, 48) led to a complete loss of activity. Data analysis indicated no clear SAR for the substitutents in the cell-based assays.
(§2) The inhibition of hepatic glycogenolysis was monitored by the measurement of liver glycogen, which was done quantitatively by the anthrone reagent (Sigma) colorimetric method based on the published method. Isolated rat hepatocytes or HepG2 cells (Sigma) were treated with the test compound or DMSO solvent (final concentration, 0.10%), followed by 60-min incubation with 0.3 nM glucagon (GGN). Assays were terminated by centrifugation, and cells were digested with 30% KOH followed by glycogen determination. The IC50 values were estimated by fitting the inhibition data to a dose-dependent curve using a logistic derivative equation.

[2] = system: HepG2 cells; assay: Glycogenolysis inhibition in HepG2 cells; format: cell-based, human; details: read-out: IC50 (glycogenolysis inhibition, HepG2 cells)
Excerpt: as §1, §2

[3] = target: T1, rabbit muscle GPa (RMGPa) (Oryctolagus cuniculus, UniProt P00489); assay: RMGPa inhibition assay (phosphate release from glucose-1-phosphate); format: biochemical; details: for IC50: mean ± S.D. of three determinations, NI means no inhibition
T1 sequence (P00489 2-843 limits assumed): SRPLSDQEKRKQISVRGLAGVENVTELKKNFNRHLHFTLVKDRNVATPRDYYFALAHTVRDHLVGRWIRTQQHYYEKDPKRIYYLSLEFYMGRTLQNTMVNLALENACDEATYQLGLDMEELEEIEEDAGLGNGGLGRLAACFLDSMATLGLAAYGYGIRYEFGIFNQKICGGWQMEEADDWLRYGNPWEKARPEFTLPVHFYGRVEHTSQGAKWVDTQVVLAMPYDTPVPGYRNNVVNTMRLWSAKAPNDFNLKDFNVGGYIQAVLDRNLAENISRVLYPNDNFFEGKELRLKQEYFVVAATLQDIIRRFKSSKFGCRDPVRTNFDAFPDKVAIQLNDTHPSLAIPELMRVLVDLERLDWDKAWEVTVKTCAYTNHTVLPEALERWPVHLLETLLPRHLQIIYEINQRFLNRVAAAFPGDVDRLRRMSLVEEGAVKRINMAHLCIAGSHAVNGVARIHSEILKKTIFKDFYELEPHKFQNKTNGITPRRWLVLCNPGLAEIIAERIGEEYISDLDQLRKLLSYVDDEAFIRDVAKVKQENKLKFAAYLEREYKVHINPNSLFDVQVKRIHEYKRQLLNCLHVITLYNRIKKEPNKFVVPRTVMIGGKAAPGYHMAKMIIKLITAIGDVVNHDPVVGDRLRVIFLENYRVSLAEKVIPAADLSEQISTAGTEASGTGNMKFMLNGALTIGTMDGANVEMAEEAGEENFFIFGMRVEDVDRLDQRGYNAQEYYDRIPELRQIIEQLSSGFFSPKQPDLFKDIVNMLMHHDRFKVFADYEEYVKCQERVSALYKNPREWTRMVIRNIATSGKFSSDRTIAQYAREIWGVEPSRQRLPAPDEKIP
Experimental: All the compounds were evaluated for their inhibitory activity against rabbit muscle GPa (RMGPa). The activity of RMGPa was measured through detecting the release of phosphate from glucose-1-phosphate in the direction of glycogen synthesis. CP-91149, a well-known allosteric GP inhibitor, which shares the same binding site with PSN-357, was used as the positive control and the results are summarized in Table 1[21]. […] This remarkable loss of activity was probably due to the direct steric interference by such bulky substituent of cholic acid group. […] The results is consistent with the SARs of PSN-357 that the hydroxyl of piperidine is not an essential group for the GP inhibitory activity that could be modified slightly.
The inhibitory activity of the test compounds against rabbit muscle glycogen phosphorylase a (GPa) was monitored using microplate reader (BIO-RAD) based on the published method. In brief, GPa activity was measured in the direction of glycogen synthesis by the release of phosphate from glucose-1-phosphate. Each test compound was dissolved in DMSO and diluted at different concentrations for IC50 determination. The enzyme was added into 100 μL of buffer containing 50 mM Hepes (pH = 7.2), 100 mM KCl, 2.5 mM MgCl2, 0.5 mM glucose-1-phosphate, 1 mg/mL glycogen and the test compound in 96-well microplates (Costar). After the addition of 150 μL of 1 M HCl containing 10 mg/mL ammonium molybdate and 0.38 mg/mL malachite green, reactions were run at 22 °C for 25 min, and then the phosphate absorbance was measured at 655 nm. The IC50 values were estimated by fitting the inhibition data to a dose-dependent curve using a logistic derivative equation.

[4] = Stability in mouse liver microsomes (MLM); format: in vitro ADME; details: C57BL/6, pH 7.4, n = 3
Experimental: Additionally, the compounds’ stability in microsome were evaluated by measuring the rate of compounds consumpation in MLM and the results are shown in Table 3.
The microsomal pellet was suspended in potassium phosphate buffer (100 mM, pH 7.4), 10 μM test compound or positive control (diclofenac) was added. Liver microsomes from C57BL/6 mice (BD Gentest) were pooled. The mixture of microsome solution and compound was incubated at 37 °C for about 10 min in the presence of a NADPH-regenerating system, consisting of 0.02 M DL-isocitric acid (trisodium salt), 0.1 mg/mL isocitrate dehydrogenase and 1 mM NADPH. The addition of ice-cold CH3CN (including 100 ng/mL tolbutamide as internal standard) terminated the reaction. The mixture was vortexed for approx (30 s), centrifuged (20 min, 4000 rpm) and the supernatant was collected and analysed by LC-MS/MS method.

[5] = Homo sapiens, HepG2, 1 h, HepG2 cells, 60-min incubation with 0.3 nM glucagon, mean ± S.D. of three, NI means no inhibition

SMILES | melting point | IC50 [3] | IC50 ([1]; Hepatocyte, 1 h) | IC50 [2, 5] | also measured
CC(C)[C@H](N)C(=O)OC1CCN(C(=O)[C@H](Cc2ccc(F)cc2)NC(=O)c2cc3cc(Cl)ncc3[nH]2)CC1 (as salt: hydrochloride) [Compound 27] | 214 to 216 °C | – | – | – | –
CN(C)C(=O)[C@H](O)[C@H](Cc1ccccc1)NC(=O)c1cc2cc(Cl)ccc2[nH]1 [CP-91149, reference compound] | – | 0.09 ± 0.04 µM | – | – | IC50 [1]: 3.08 ± 1.16 µM; IC50 ([2]; HepG2 cells, 60-min incubation with 0.3 nM glucagon, mean ± S.D. of three, NI means no inhibition): 2.53 ± 0.78 µM
CC(C)(C)OC(=O)C[C@H](NC(=O)OC(C)(C)C)C(=O)OC1CCN(C(=O)[C@H](Cc2ccc(F)cc2)NC(=O)c2cc3cc(Cl)ncc3[nH]2)CC1 [Compound 25] | 118 to 120 °C | 0.81 ± 0.077 µM | 10.2 ± 1.13 µM | 15.1 ± 4.11 µM | –
C[C@H](N)C(=O)OC1CCN(C(=O)[C@H](Cc2ccc(F)cc2)NC(=O)c2cc3cc(Cl)ncc3[nH]2)CC1 [Compound 26] | – | 0.56 ± 0.043 µM | 9.79 ± 9.65 µM | 6.99 ± 2.1 µM | –
CC(C)[C@H](N)C(=O)OC1CCN(C(=O)[C@H](Cc2ccc(F)cc2)NC(=O)c2cc3cc(Cl)ncc3[nH]2)CC1 [Compound 27] | – | 0.88 ± 0.17 µM | 14.7 ± 4.99 µM | 16.8 ± 3.71 µM | –
N[C@@H](CO)C(=O)OC1CCN(C(=O)[C@H](Cc2ccc(F)cc2)NC(=O)c2cc3cc(Cl)ncc3[nH]2)CC1 [Compound 28] | – | 0.52 ± 0.01 µM | 13.6 ± 0.23 µM | 2.88 ± 0.16 µM | fold less potent than PSN-357 (RMGPa) ([3]; vs PSN-357): approximately 1.25 fold
CC(C)[C@H](NC(=O)OC(C)(C)C)C(=O)N[C@@H](C)C(=O)OC1CCN(C(=O)[C@H](Cc2ccc(F)cc2)NC(=O)c2cc3cc(Cl)ncc3[nH]2)CC1 [Compound 33] | 151 to 153 °C | 27 ± 6.39 µM | 11.1 ± 3.67 µM | – | –
CC(C)(C)OC(=O)N[C@@H](Cc1ccccc1)C(=O)N[C@@H](CCCCNC(=O)OCC1c2ccccc2-c2ccccc21)C(=O)OC1CCN(C(=O)[C@H](Cc2ccc(F)cc2)NC(=O)c2cc3cc(Cl)ncc3[nH]2)CC1 [Compound 40] | – | 3.44 ± 0.22 µM | 38.4 ± 5.76 µM | 33.6 ± 12.2 µM | –
CC(CCC(=O)NC(Cc1ccccc1)C(=O)NC(CCCCNC(=O)OCC1c2ccccc2-c2ccccc21)C(=O)OC1CCN(C(=O)C(Cc2ccc(F)cc2)NC(=O)c2cc3cc(Cl)ncc3[nH]2)CC1)C1CCC2C3C(O)CC4CC(O)CCC4(C)C3CC(O)C12C (stereo not shown) [Compound 42] | 149 to 151 °C | 15.4 ± 0.89 µM | 5.56 ± 2.41 µM | – | IC50 ([2]; Homo sapiens, HepG2, 1 h): 180 ± 51.2 µM
CC(C)(C)OC(=O)c1ccc(/N=N/c2ccccc2CCC(=O)OC2CCN(C(=O)[C@H](Cc3ccc(F)cc3)NC(=O)c3cc4cc(Cl)ncc4[nH]3)CC2)cc1 [Compound 47] | 123 to 125 °C | – | 97.6 ± 1.1 µM | – | –
O=C(CCc1ccccc1/N=N/c1ccc(C(=O)O)cc1)OC1CCN(C(=O)[C@H](Cc2ccc(F)cc2)NC(=O)c2cc3cc(Cl)ncc3[nH]2)CC1 [Compound 48] | 127 to 129 °C | 3.11 ± 0.05 µM | 35 ± 3.46 µM | 9.18 ± 7.42 µM | –
O=C(O)Cc1ccccc1Nc1c(Cl)cccc1Cl [Diclofenac, diclofenac, reference compound] | – | – | – | – | CLint scaled at 10 μM [4]: 208 mL/min/kg; half-life at 10 μM [4]: 26.3 min; microsomal CLint at 10 μM [4]: 52.6 µL/min/mg
